System: SH-Ratte
Test: Blood pressure measurement in conscious rats (tail cuff, oral administration)
Type: in vivo
Settings: Rattus norvegicus, oral by gavage, lowest dose that still gives at least 15 mm Hg fall in systolic blood pressure, read-out: Grenzdosis der antihypertensiven Wirkung
Protocol: Blutdruckmessung bei wachen Ratten
Meßmethode: In Anlehnung an das von Breuninger beschriebene Verfahren wird der Blutdruck am Schwanz der nicht narkotisierten Ratte unblutig mittels aufblasbarer Gummimanschette und Infraton-Pulsabnehmer D nach Boucke-Brecht gemessen. Die Tiere befinden sich während des ganzen Versuches, einschlieBlich einer 2-stündigen Vorperiode, einzeln in einem Wassermantel umgeben, auf ca. 30°C temperierten Kunststoffröhren. Die aufblasbare Gummimanschette sitzt an der Schwanzwurzel, der Pulsabnehmer 2-5 cm distal davon. Zur Erzielung gleichmäßiger Meßresultate ist für die wiederholten Messungen die Meßstelle am Schwanz mit Tusche markiert.
Der gesamte Meßvorgang wird auf einem 2-Kanal-Direktschreiber oder einem Speicher-Oszillografen (Tektronix) registriert, im 1. Kanal die Pulsationen der Schwanzarterie, im 2. Kanal die Impulse eines Druckmarkengebers, der den jeweils in der Manschette herrschenden Druck anzeigt. Gemessen wird bei abfallendem Manschettendruck. Als Meßwert wird der in der Manschette herrschende Druck bei Wiederauftreten der Pulsationen benutzt. Er entspricht dem systolischen Blutdruck im Rattenschwanz. […]
Bei der quantitativen Bestimmung von Dosis-Wirkungskurven wird für jedes Tier die Wirkung als mittlere prozentuale Blutdrucksenkung gegenüber dem Ausgangsblutdruck, gemittelt über den Versuchszeitraum von 6 Stunden, angegeben. […]

COC(=O)C1=C(C)NC(C)=C(C(=O)OCC(C)(C)O)C1c1ccccc1[N+](=O)[O-] (stereo not shown) [Beispiel 3, 1,4-Dihydro-2,6-dimethyl-4-(2-nitrophenyl)-pyridin-3,5-dicarbonsäure-(2-hydroxy-2-methyl-propyl)-methyl-ester]
minimal effective dose: 1 mg/kg
